According to patent US8551984B2, “Aminopyrimidines as SYK inhibitors” (Merck Sharp & Dohme Corp., priority 2009, dated 2013):
pIC50: −log10 of the molar value. Read-outs that look alike come from different tables or passages of the source.

Tests used:
rhSYK = rhSYK (Homo sapiens, UniProt P43405)
[1] = biological target: recombinant human SYK (GST-hSYK fusion protein) (Homo sapiens, UniProt P43405); test: biochemical
Description: Homogeneous Time-Resolved Fluorescence (HTRF) Assay for the Recombinant Human SYK Enzyme:

[2] = read-out: rhSYK activity, class symbol given
[3] = read-out: rhSYK Activity, class symbol, where two forms are listed, one symbol per form
[4] = rhSYK Activity (IC50), recombinant human GST-SYK 5 pM, ATP 25 μM, biotinylated substrate peptide 250 nM, HTRF, 10-dose titration
[5] = Syk IC50, HTRF, recombinant human GST-SYK

| Compound | pIC50 [1, 4] | further results |
| --- | --- | --- |
| Cc1cc(Nc2nccc(C(F)(F)F)n2)cc(-c2cnc(C3(O)CCC(C(=O)O)CC3)s2)c1 (single isomer, unassigned) [33(1), trans-4-hydroxy-4-[5-(3-methyl-5-{[4-(trifluoromethyl)pyrimidin-2-yl]amino}phenyl)-1,3-thiazol-2-yl]cyclohexanecarboxylic acid] |  | pIC50 (rhSYK; [2]): > 7.00 |
| Cc1cc(Nc2nccc(C(F)(F)F)n2)cc(-c2cnc(C3(O)CCC(C(=O)O)CC3)s2)c1 (single isomer, unassigned) [33(2), cis-4-hydroxy-4-[5-(3-methyl-5-{[4-(trifluoromethyl)pyrimidin-2-yl]amino}phenyl)-1,3-thiazol-2-yl]cyclohexanecarboxylic acid] |  | pIC50 (rhSYK; [2]): > 7.00 |
| Cc1cc(Nc2nccc(C(F)(F)F)n2)cc(-c2cnc(C(C)(O)c3cccc(C(=O)O)c3)s2)c1 (single isomer, unassigned) [Example 4A-54] |  | pIC50 (rhSYK; [3]): > 7.00 |
| Cc1cc(Nc2nccc(C(F)(F)F)n2)cc(-c2cnc(C(C)(O)c3cccc(C(=O)O)c3)s2)c1 (single isomer, unassigned) [Example 4A-55] |  | pIC50 (rhSYK; [3]): > 7.00 |
| Cc1cc(Nc2nccc(C(F)(F)F)n2)cc(-c2cnc(C(C)(O)c3ccc(CC(=O)O)cc3)s2)c1 (single isomer, unassigned) [Example 4A-59] |  | pIC50 (rhSYK; [3]): > 7.00 |
| Cc1cc(Nc2nccc(C(F)(F)F)n2)cc(-c2cnc(C(C)(O)c3ccc(CC(=O)O)cc3)s2)c1 (single isomer, unassigned) [Example 4A-60] |  | pIC50 (rhSYK; [3]): > 7.00 |
| COc1cc(C(C)(O)c2ncc(-c3cc(C)cc(Nc4nccc(C(F)(F)F)n4)c3)s2)ccc1C(=O)O (single isomer, unassigned) [Example 4A-65] |  | pIC50 (rhSYK; [3]): > 7.00 |
| Cc1cc(Nc2nccc(C(F)(F)F)n2)cc(-c2cnc(C3(C#N)CCCCC3)s2)c1 [Example 128, 1-[5-(3-methyl-5-{[4-(trifluoromethyl)pyrimidin-2-yl]amino}phenyl)-1,3-thiazol-2-yl]cyclohexanecarbonitrile] | 6.00 to 7.00 |  |
| Cc1cc(Nc2nccc(C(F)(F)F)n2)cc(-c2cnc(C3CCCCC3)s2)c1 [Example 130] | 6.00 to 7.00 |  |
| Cc1cc(Nc2nccc(C(F)(F)F)n2)cc(-c2cnc(C3(F)CCSCC3)s2)c1 [Example 132, N-{3-[2-(4-fluorotetrahydro-2H-thiopyran-4-yl)-1,3-thiazol-5-yl]-5-methylphenyl}-4-(trifluoromethyl)pyrimidin-2-amine] | 6.00 to 7.00 |  |
| Cc1cc(Nc2nccc(C(F)(F)F)n2)cc(-c2cnc(C34CCC(C(=O)O3)C(C)(C)C4)s2)c1 (stereo not drawn) [Example 139, Cis-5,5-dimethyl-1-[5-(3-methyl-5-{[4-(trifluoromethyl)pyrimidin-2-yl]amino}phenyl)-1,3-thiazol-2-yl]-2-oxabicyclo[2.2.2]octan-3-one] | 6.00 to 7.00 |  |
| CCOP(=O)(OCC)[C@]1(O)CC[C@@](O)(c2ncc(-c3cc(C)cc(Nc4nccc(C(F)(F)F)n4)c3)s2)CC1 [Example 155(A), Diethyl{cis-1,4-dihydroxy-4-[5-(3-methyl-5-{[4-(trifluoromethyl)pyrimidin-2-yl]amino}phenyl)-1,3-thiazol-2-yl]cyclohexyl}phosphonate] | > 7.00 |  |
| Cc1cc(Nc2nccc(-c3cnn(CC(C)(C)O)c3)n2)cc(-c2cnc(C3(O)CCC3)s2)c1 [Example 157, 1-{5-[3-({4-[1-(2-hydroxy-2-methylpropyl)-1H-pyrazol-4-yl]pyrimidin-2-yl}amino)-5-methylphenyl]-1,3-thiazol-2-yl}cyclobutanol] | > 7.00 |  |
| Cc1cc(Nc2nccc(OCCO)n2)cc(-c2cnc(C(O)(CO)CO)s2)c1 [Example 158, 2-[5-(3-{[4-(2-hydroxyethoxy)pyrimidin-2-yl]amino}-5-methylphenyl)-1,3-thiazol-2-yl]propane-1,2,3-triol] | > 7.00 |  |
| Cc1cc(Nc2nccc(OCCO)n2)cc(-c2cnc(C3(O)CCC(C(=O)O)C(C)(C)C3)s2)c1 (stereo not shown) [Example 159, 4-hydroxy-4-[5-(3-{[4-(2-hydroxyethoxy)pyrimidin-2-yl]amino}-5-methylphenyl)-1,3-thiazol-2-yl]-2,2-dimethylcyclohexanecarboxylic acid] | > 7.00 |  |
| Cc1cc(Nc2nccc(C(F)(F)F)n2)cc(-c2cnc(C3(N)CCNC(=O)CC3)s2)c1 (stereo not shown) [Example 162, 5-amino-5-[5-(3-methyl-5-{[4-(trifluoromethyl)pyrimidin-2-yl]amino}phenyl)-1,3-thiazol-2-yl]azepan-2-one] | > 7.00 |  |
| Cc1cc(Nc2nccc(C(F)(F)F)n2)cc(-c2cnc(C3CCC4(CC3)OCCO4)s2)c1 [N-{3-[2-(1,4-diaxaspiro[4.5]dec-8-yl)-1,3-thiazol-5-yl]-5-methylphenyl}-4-(trifluoromethyl)pyrimidin-2-amine] |  | pIC50 [1, 5]: 6.53 |
| Cc1cc(Nc2nccc(C(F)(F)F)n2)cc(-c2cnc(C3(O)CCCN(CC(=O)O)CC3)s2)c1 (stereo not shown) [{4-hydroxy-4-[5-(3-methyl-5-{[4-(trifluoromethyl)pyrimidin-2-yl]amino}phenyl)-1,3-thiazol-2-yl]azepan-1-yl)acetic acid] |  | pIC50 [1, 5]: 6.67 |

The next lines start with results.

| pIC50 [1, 4] | Compound | further results |
| --- | --- | --- |
| > 7.00 | Cc1cc(Nc2nccc(C(F)(F)F)n2)cc(-c2cnc(C3(C(N)=O)CCCCC3)s2)c1 [Example 129, 1-[5-(3-methyl-5-{[4-(trifluoromethyl)pyrimidin-2-yl]amino}phenyl)-1,3-thiazol-2-yl]cyclohexanecarboxamide] |  |
| > 7.00 | Cc1cc(Nc2nccc(C(F)(F)F)n2)cc(-c2cnc(C(C)(O)c3ccc(S(C)(=O)=O)cc3)s2)c1 (stereo not shown) [Example 131, 1-[4-(methylsulfonyl)phenyl]-1-[5-(3-methyl-5-{[4-(trifluoromethyl)pyrimidin-2-yl]amino}phenyl)-1,3-thiazol-2-yl]ethanol] |  |
| > 7.00 | Cc1cc(Nc2nccc(C(F)(F)F)n2)cc(-c2cnc(C3=CCSCC3)s2)c1 [Example 133, N-{3-[2-(3,6-dihydro-2H-thiopyran-4-yl)-1,3-thiazol-5-yl]-5-methylphenyl}-4-(trifluoromethyl)pyrimidin-2-amine] |  |
| > 7.00 | Cc1cc(Nc2nccc(C(F)(F)F)n2)cc(-c2cnc(C3(F)CCS(=O)(=O)CC3)s2)c1 [Example 134, N-{3-[2-(4-fluoro-1,1-dioxidotetrahydro-2H-thiopyran-4-yl)-1,3-thiazol-5-yl]-5-methylphenyl}-4-(trifluoromethyl)pyrimidin-2-amine] |  |
| > 7.00 | Cc1cc(Nc2nccc(C(F)(F)F)n2)cc(-c2cnc(C3=CCS(=O)(=O)CC3)s2)c1 [Example 135, N-{3-[2-(1,1-dioxido-3,6-dihydro-2H-thiopyran-4-yl)-1,3-thiazol-5-yl]-5-methylphenyl}-4-(trifluoromethyl)pyrimidin-2-amine] |  |
| > 7.00 | Cc1cc(Nc2nccc(C(F)(F)F)n2)cc(-c2cnc(C3CCSCC3)s2)c1 [Example 136, N-{3-methyl-5-[2-(tetrahydro-2H-thiopyran-4-yl)-1,3-thiazol-5-yl]phenyl}-4-(trifluoromethyl)pyrimidin-2-amine] |  |
| > 7.00 | Cc1cc(Nc2nccc(C(F)(F)F)n2)cc(-c2cnc(C3CCS(=O)(=O)CC3)s2)c1 [Example 137, N-{3-[2-(1,1-dioxidotetrahydro-2H-thiopyran-4-yl)-1,3-thiazol-5-yl]-5-methylphenyl}-4-(trifluoromethyl)pyrimidin-2-amine] |  |
| > 7.00 | Cc1cc(Nc2nccc(C(F)(F)F)n2)cc(-c2cnc(C3(O)CCC(O)C4(CC4)C3)s2)c1 (stereo not shown) [Example 143(A), 7-[5-(3-methyl-5-{[4-(trifluoromethyl)pyrimidin-2-yl]amino}phenyl)-1,3-thiazol-2-yl]spiro[2.5]octane-4,7-diol] |  |
| > 7.00 | Cc1cc(Nc2nccc(C(F)(F)F)n2)cc(-c2cnc(C3(O)CC4(CC4)C(O)C4(CC4)C3)s2)c1 (stereo not shown) [Example 143(B), 9-[5-(3-methyl-5-{[4-(trifluoromethyl)pyrimidin-2-yl]amino}phenyl)-1,3-thiazol-2-yl]dispiro[2.1.2.3]decane-4,9-diol] |  |
| > 7.00 | Cc1cc(Nc2nccc(C(F)(F)F)n2)cc(-c2cnc(C3CCCCNC3=O)s2)c1 (stereo not shown) [Example 144, 3-[5-(3-methyl-5-{[4-(trifluoromethyl)pyrimidin-2-yl]amino}phenyl)-1,3-thiazol-2-yl]azepan-2-one] |  |
| > 7.00 | Cc1cc(Nc2nccc(C(F)(F)F)n2)cc(-c2cnc(/C=C/c3ccc(C(=O)O)cc3)s2)c1 [Example 147] |  |
| > 7.00 | Cc1cc(Nc2nccc(C(F)(F)F)n2)cc(-c2cnc(CCc3ccc(C(=O)O)cc3)s2)c1 [Example 148, 4-{2-[5-(3-methyl-5-{[4-(trifluoromethyl)pyrimidin-2-yl]amino}phenyl)-1,3-thiazol-2-yl]ethyl}benzoic acid] |  |
| > 7.00 | Cc1cc(Nc2nccc(C(F)(F)F)n2)cc(-c2cnc(C(C)(O)c3ccc(C(=O)O)nc3)s2)c1 (stereo not shown) [Example 149, 5-{1-Hydroxy-1-[5-(3-methyl-5-{[4-(trifluoromethyl)pyrimidin-2-yl]amino}phenyl)-1,3-thiazol-2-yl]ethyl}pyridine-2-carboxylic acid] |  |
| > 7.00 | Cc1cc(Nc2nccc(C(F)(F)F)n2)cc(-c2cnc(C(C)(O)c3ccc(C(=O)O)cn3)s2)c1 (stereo not shown) [Example 150, 6-{1-Hydroxy-1-[5-(3-methyl-5-{[4-(trifluoromethyl)pyrimidin-2-yl]amino}phenyl)-1,3-thiazol-2-yl]ethyl}pyridine-3-carboxylic acid] |  |
| > 7.00 | Cc1cc(Nc2nccc(C)n2)cc(-c2cnc([C@@]3(O)CC[C@H](C(=O)O)C(C)(C)C3)s2)c1 [Example 152, (1S,4R)-4-Hydroxy-2,2-dimethyl-4-{5-[3-methyl-5-(4-methyl-pyrimidin-2-ylamino)-phenyl]-1,3-thiazol-2-yl}-cyclohexanecarboxylic acid] |  |
| > 7.00 | Cc1cc(Nc2nccc(C(F)(F)F)n2)cc(-c2cnc(C3(O)CCC/C(=N\O)C3(C)C)s2)c1 (stereo not shown) [Example 156, (3E)-3-(Hydroxyimino)-2,2-dimethyl-1-[5-(3-methyl-5-{[4-(trifluoromethyl)pyrimidin-2-yl]amino}phenyl)-1,3-thiazol-2-yl]cyclohexanol] |  |
